Molecules are shown by their SMILES. The source made the active and inactive calls. The calls are words filed in the database; no cut-off is given here. Some results are limits rather than exact numbers.

Consider four molecules from ChEMBL document CHEMBL4680270, “Synthesis and biological evaluation of novel pyrazoline derivatives containing indole skeleton as anti-cancer agents targeting topoisomerase II” (Eur J Med Chem, 2020).

The subject of one assay is MGC-803. Put plainly: Antiproliferative activity against human MGC-803 cells assessed as reduction in cell growth incubated for 48 hrs by MTT assay. The assay is classed as functional, cell-based. To be noted: MGC-803, 48 h. On the technique in general: Formazan colour is commonly taken as a measure of viable cells.
As for `Fc1cccc2c1SCC1C2=NN(c2ccccc2)C1c1c[nH]c2ccccc12` (stereo not given), the IC50 – broadly, the midpoint of a concentration-inhibition curve – stood at 31.1 µM.
Same read-out and setting: to `Cc1ccc2c(c1)C1=NN(c3ccccc3)C(c3c[nH]c4ccccc34)C1CS2` (stereo not given) belongs 21.9 µM; to `Cn1cc(C2C3CSc4ccc(Cl)cc4C3=NN2c2ccccc2)c2ccccc21` (stereo not given), 33.1 µM; to `Clc1cc2c(cc1Cl)C1=NN(c3ccccc3)C(c3c[nH]c4ccccc34)C1CS2` (stereo not given), 27.1 µM.

Another assay deals with BEL-7404 tumor cell line. Put plainly: Antiproliferative activity against human Bel-7404 tumor cell line assessed as reduction in cell growth incubated for 48 hrs by MTT assay. To be noted: BEL-7404, 48 h. In kind it is functional, cell-based.
Consider `Fc1cccc2c1SCC1C2=NN(c2ccccc2)C1c1c[nH]c2ccccc12` (stereo not given), for which the IC50 came out at 36.2 µM.
The same measure, in the same setting: to `Cc1ccc2c(c1)C1=NN(c3ccccc3)C(c3c[nH]c4ccccc34)C1CS2` (stereo not given) belongs > 120 µM; to `Cn1cc(C2C3CSc4ccc(Cl)cc4C3=NN2c2ccccc2)c2ccccc21` (stereo not given), 36.2 µM; to `Clc1cc2c(cc1Cl)C1=NN(c3ccccc3)C(c3c[nH]c4ccccc34)C1CS2` (stereo not given), > 120 µM.

The target of another assay is T1, DNA topoisomerase 1 (Homo sapiens) (UniProt P11387).
T1 sequence (whole entry): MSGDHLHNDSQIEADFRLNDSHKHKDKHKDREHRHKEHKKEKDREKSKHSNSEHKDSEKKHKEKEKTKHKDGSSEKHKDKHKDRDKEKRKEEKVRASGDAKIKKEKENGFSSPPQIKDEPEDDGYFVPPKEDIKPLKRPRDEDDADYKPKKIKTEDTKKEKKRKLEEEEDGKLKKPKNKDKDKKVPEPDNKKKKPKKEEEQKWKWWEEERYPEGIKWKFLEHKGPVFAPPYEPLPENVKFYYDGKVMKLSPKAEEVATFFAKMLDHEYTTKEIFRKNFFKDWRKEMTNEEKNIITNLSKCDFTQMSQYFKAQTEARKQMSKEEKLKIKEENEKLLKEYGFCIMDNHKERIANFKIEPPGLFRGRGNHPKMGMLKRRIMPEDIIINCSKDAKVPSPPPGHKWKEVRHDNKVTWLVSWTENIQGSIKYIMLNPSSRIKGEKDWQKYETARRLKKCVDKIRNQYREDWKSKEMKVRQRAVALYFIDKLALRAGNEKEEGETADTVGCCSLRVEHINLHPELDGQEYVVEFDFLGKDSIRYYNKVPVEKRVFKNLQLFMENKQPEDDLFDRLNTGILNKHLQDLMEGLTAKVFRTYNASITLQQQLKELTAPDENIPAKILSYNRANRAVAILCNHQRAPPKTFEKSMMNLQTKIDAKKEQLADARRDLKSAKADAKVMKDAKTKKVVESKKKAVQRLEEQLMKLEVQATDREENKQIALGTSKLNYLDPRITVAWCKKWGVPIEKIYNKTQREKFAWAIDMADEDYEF
Put plainly: Inhibition of human topoisomerase 1 assessed as decrease in relaxation of supercoiled pBR322 plasmid DNA at 100 uM using pBR322 plasmid DNA as substrate incubated for 30 mins by agarose gel electrophoresis.
Settings: not given
Regarding `Fc1cccc2c1SCC1C2=NN(c2ccccc2)C1c1c[nH]c2ccccc12` (stereo not given), the inhibition entry was “inactive”.
As for `Cc1ccc2c(c1)C1=NN(c3ccccc3)C(c3c[nH]c4ccccc34)C1CS2` (stereo not given), the inhibition result is “inactive”.
On the same count and under the same terms, to `Cn1cc(C2C3CSc4ccc(Cl)cc4C3=NN2c2ccccc2)c2ccccc21` (stereo not given) belongs “inactive”; to `Clc1cc2c(cc1Cl)C1=NN(c3ccccc3)C(c3c[nH]c4ccccc34)C1CS2` (stereo not given), “inactive”.

The test system of another assay is MCF7. In words: Antiproliferative activity against human MCF7 cells assessed as reduction in cell growth incubated for 48 hrs by MTT assay. The assay is classed as functional, cell-based. To be noted: MCF7, 48 h.
For `Fc1cccc2c1SCC1C2=NN(c2ccccc2)C1c1c[nH]c2ccccc12` (stereo not given), the IC50 amounted to 35.7 µM.
`Cc1ccc2c(c1)C1=NN(c3ccccc3)C(c3c[nH]c4ccccc34)C1CS2` (stereo not given): the IC50 is 68 µM.
On the same count and under the same terms, to `Cn1cc(C2C3CSc4ccc(Cl)cc4C3=NN2c2ccccc2)c2ccccc21` (stereo not given) belongs 51.1 µM; to `Clc1cc2c(cc1Cl)C1=NN(c3ccccc3)C(c3c[nH]c4ccccc34)C1CS2` (stereo not given), 72.8 µM.

The test system of the next assay is MGC-803. Put plainly: Inhibition of topoisomerase 2 purified from human MGC-803 cells assessed as decrease in relaxation of supercoiled pBR322 plasmid DNA at 100 uM using pBR322 plasmid DNA as substrate incubated for 30 mins by agarose gel electrophoresis.
Settings: not given
In kind it is cell-free.
Regarding `Fc1cccc2c1SCC1C2=NN(c2ccccc2)C1c1c[nH]c2ccccc12` (stereo not given), the inhibition entry is “Active”.
Regarding `Cc1ccc2c(c1)C1=NN(c3ccccc3)C(c3c[nH]c4ccccc34)C1CS2` (stereo not given), the inhibition entry is “Active”.
Still for that read-out and setting: to `Clc1cc2c(cc1Cl)C1=NN(c3ccccc3)C(c3c[nH]c4ccccc34)C1CS2` (stereo not given) belongs “Active”.

A further assay deals with MGC-803. Put plainly: Inhibition of topoisomerase 2 purified from human MGC-803 cells assessed as decrease in relaxation of supercoiled pBR322 plasmid DNA at 20 uM using pBR322 plasmid DNA as substrate incubated for 30 mins by agarose gel electrophoresis. In kind it is cell-free.
Settings: not given
As to `Fc1cccc2c1SCC1C2=NN(c2ccccc2)C1c1c[nH]c2ccccc12` (stereo not given), the inhibition entry was “Active”.
The same measure, in the same setting: to `Cc1ccc2c(c1)C1=NN(c3ccccc3)C(c3c[nH]c4ccccc34)C1CS2` (stereo not given) belongs “Active”; to `Clc1cc2c(cc1Cl)C1=NN(c3ccccc3)C(c3c[nH]c4ccccc34)C1CS2` (stereo not given), “Active”.

A further assay deals with HeLa. Put plainly: Antiproliferative activity against human HeLa cells assessed as reduction in cell growth incubated for 48 hrs by MTT assay. In kind it is functional, cell-based.
Settings: not given
In the case of `Fc1cccc2c1SCC1C2=NN(c2ccccc2)C1c1c[nH]c2ccccc12` (stereo not given), the IC50 was found to be 31.6 µM.
Still for that read-out and setting: to `Cc1ccc2c(c1)C1=NN(c3ccccc3)C(c3c[nH]c4ccccc34)C1CS2` (stereo not given) belongs 36.4 µM; to `Cn1cc(C2C3CSc4ccc(Cl)cc4C3=NN2c2ccccc2)c2ccccc21` (stereo not given), 48.7 µM; to `Clc1cc2c(cc1Cl)C1=NN(c3ccccc3)C(c3c[nH]c4ccccc34)C1CS2` (stereo not given), 27.4 µM.

Test system in another assay: not listed separately
In words: Cytotoxicity against […] tumor cell line assessed as reduction in cell viability incubated for 48 hrs by MTT assay. The following applies: L929, 48 h.
In the case of `Fc1cccc2c1SCC1C2=NN(c2ccccc2)C1c1c[nH]c2ccccc12` (stereo not given), the IC50 is 158 µM.
On the same count and under the same terms, to `Cc1ccc2c(c1)C1=NN(c3ccccc3)C(c3c[nH]c4ccccc34)C1CS2` (stereo not given) belongs 158 µM.
The same measure, in the same setting: to `Cn1cc(C2C3CSc4ccc(Cl)cc4C3=NN2c2ccccc2)c2ccccc21` (stereo not given) belongs 262 µM; to `Clc1cc2c(cc1Cl)C1=NN(c3ccccc3)C(c3c[nH]c4ccccc34)C1CS2` (stereo not given), 164 µM.
